The nature of data set [1]: Toxicity in female Beagle dog assessed as fold decrease in calcium level at 15 to 45 mg/kg, po qd measured for 60 days. Type of data set: organism-based, Canis lupus familiaris. Details: scale not given: the % may be the effect or the level left. Particulars: in vivo, 1440 h, dose 15-45 mg/kg, time 60 day.
Data set [2] in a line: Total AUC (0 to 24 hrs) in Beagle dog at 45 mg/kg, po qd measured after 60 days. Type of data set: ADME, organism-based, Canis lupus familiaris. Particulars: in vivo, time 60 day.
Data set [3] in a line: Ratio of total drug concentration in liver to plasma in CD-1 mouse at 0.2 mg/kg, po measured for 24 hrs by LC-MS/MS analysis. Type of data set: ADME, organism-based. Particulars: CD-1, mouse, liver and plasma.
The nature of data set [4]: Drug concentration in Sprague-Dawley rat lung at 5 mg/kg, po measured for 24 hrs by LC-MS/MS analysis. Type of data set: ADME, organism-based.
Data set [5] can be described thus: Ratio of drug concentration in lung to plasma of Sprague-Dawley rat at 5 mg/kg, po measured for 24 hrs by LC-MS/MS analysis. The class given is ADME, organism-based.
Data set [6] in a line: Toxicity in female Beagle dog assessed as decrease in total protein level at 15 to 45 mg/kg, po qd measured for 60 days. Type of data set: organism-based, Canis lupus familiaris. Particulars: in vivo, 1440 h, dose 15-45 mg/kg, time 60 day. More on the design: scale not given: the % may be the effect or the level left.
Data set [7] is described as follows: Toxicity in Beagle dog assessed as splayed limbs at 15 to 45 mg/kg, po qd measured after 60 days. Type of data set: organism-based, Canis lupus familiaris. Particulars: in vivo, 1440 h, dose 15-45 mg/kg, time 60 day.
Data set [8] is described as follows: Toxicity in female Beagle dog assessed as change in body weight at 15 to 45 mg/kg, po qd measured for 60 days. The class given is organism-based, Canis lupus familiaris. Conditions: in vivo, 1440 h, dose 15-45 mg/kg, time 60 day.
Another data set addresses Cytochrome P450 2C9 (Homo sapiens, UniProt P11712). Kind of data set: Inhibition of CYP2C9 in human liver microsomes using diclofenac as substrate preincubated for 30 min followed by NADPH addition measured after 12 mins by LC-MS/MS analysis. The class given is ADME, Microsome. For orientation: Liver microsomes are vesicles of endoplasmic reticulum, rich in cytochrome P450 enzymes.

Data set [9] is described as follows: Free AUC (0 to 24 hrs) in Beagle dog at 15 mg/kg, po qd measured after 60 days. The class given is ADME, organism-based, Canis lupus familiaris. Particulars: in vivo, 1440 h, time 60 day.
Data set [10] is described as follows: Toxicity in male Beagle dog assessed as fold increase in alanine aminotransferase level at 45 mg/kg, po qd measured for 60 days. Particulars: in vivo, 1440 h, time 60 day. The class given is organism-based, Canis lupus familiaris.
Data set [11] in a line: Toxicity in Beagle dog assessed as uncoordinated movements at 15 to 45 mg/kg, po qd measured after 60 days. The class given is organism-based, Canis lupus familiaris. Particulars: in vivo, 1440 h, dose 15-45 mg/kg, time 60 day.
The nature of data set [12]: Total Cmax in Beagle dog at 15 mg/kg, po qd measured after 60 days. Particulars: in vivo, time 60 day. The class given is ADME, organism-based, Canis lupus familiaris.
In another data set the target is T1, CYP1A2 (Homo sapiens, UniProt P05177).
T1 sequence (P05177 whole entry): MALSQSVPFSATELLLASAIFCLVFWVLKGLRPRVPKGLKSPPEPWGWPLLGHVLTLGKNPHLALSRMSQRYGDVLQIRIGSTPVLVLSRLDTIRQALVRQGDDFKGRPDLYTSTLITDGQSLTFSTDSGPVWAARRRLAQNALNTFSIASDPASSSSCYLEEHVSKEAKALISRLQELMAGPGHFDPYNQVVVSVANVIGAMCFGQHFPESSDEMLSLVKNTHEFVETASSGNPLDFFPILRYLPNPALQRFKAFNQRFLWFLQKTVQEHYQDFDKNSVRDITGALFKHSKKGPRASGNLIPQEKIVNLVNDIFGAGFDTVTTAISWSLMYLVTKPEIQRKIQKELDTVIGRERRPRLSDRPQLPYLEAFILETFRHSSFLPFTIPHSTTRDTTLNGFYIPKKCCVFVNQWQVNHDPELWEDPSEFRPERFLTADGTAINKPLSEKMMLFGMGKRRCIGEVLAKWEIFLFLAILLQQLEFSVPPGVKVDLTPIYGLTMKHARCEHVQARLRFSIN
Kind of data set: Inhibition of CYP1A2 in human liver microsomes using phenacetin as substrate preincubated for 30 min followed by NADPH addition measured after 12 mins by LC-MS/MS analysis. The class given is ADME, Microsome. Conditions: human, liver microsomes, probe phenacetin.

The nature of data set [13]: Free Cmax in Beagle dog at 15 mg/kg, po qd measured after 91 days. Type of data set: ADME, organism-based, Canis lupus familiaris. Particulars: in vivo, 2184 h, time 91 day.
Data set [14] has as its system Hepatitis B virus. Kind of data set: Antiviral activity against HBV genotype D in immuno-competent C57BL/6 mouse model of chronic HBV assessed as log10 reduction in HBsAg production at 10 mg/kg, po qd for 7 days measured 24 hrs post-last dose by EIA relative to control. Type of data set: functional. Conditions: time 8 day.
For data set [15], the system named is Hepatitis B virus. Kind of data set: Antiviral activity against HBV infected in immuno-competent mouse model assessed as log10 reduction serum HBsAg. Type of data set: functional.
Data set [16] can be described thus: Free Cmax in Beagle dog at 5 mg/kg, po qd measured after 91 days. The class given is ADME, organism-based, Canis lupus familiaris. Particulars: in vivo, 2184 h, time 91 day.
The target in a further data set is CYP2C19 (Homo sapiens, UniProt P33261). Description: Inhibition of CYP2C19 in human liver microsomes using S-mephenytoin as substrate preincubated for 30 min followed by NADPH addition measured after 12 mins by LC-MS/MS analysis. Conditions: human, liver microsomes, probe S-mephenytoin. Type of data set: ADME, Microsome.
CYP2C19, sequence (P33261 whole entry): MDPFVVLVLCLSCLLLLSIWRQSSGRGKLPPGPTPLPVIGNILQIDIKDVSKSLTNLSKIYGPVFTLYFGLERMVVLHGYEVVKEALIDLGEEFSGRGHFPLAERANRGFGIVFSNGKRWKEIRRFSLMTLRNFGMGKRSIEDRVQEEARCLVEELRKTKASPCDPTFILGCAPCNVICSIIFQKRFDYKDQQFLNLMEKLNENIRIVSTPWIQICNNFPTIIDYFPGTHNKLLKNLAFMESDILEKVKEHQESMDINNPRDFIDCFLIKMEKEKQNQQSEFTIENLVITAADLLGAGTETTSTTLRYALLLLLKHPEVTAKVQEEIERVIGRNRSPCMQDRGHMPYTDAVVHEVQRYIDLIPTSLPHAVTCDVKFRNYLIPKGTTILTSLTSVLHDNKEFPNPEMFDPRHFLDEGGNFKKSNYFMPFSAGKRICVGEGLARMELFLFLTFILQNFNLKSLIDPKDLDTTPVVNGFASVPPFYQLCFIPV
Data set [17] in a line: AUC (0 to 24 hrs) in Sprague-Dawley rat at 10 mg/kg, po measured for 24 hrs by LC-MS/MS analysis. The class given is ADME, organism-based. Conditions: in vivo.
Data set [18] is described as follows: Drug concentration in Sprague-Dawley rat plasma at 10 mg/kg, po measured for 24 hrs by LC-MS/MS analysis. Type of data set: ADME, organism-based. Particulars: read-out: Ct.
The nature of data set [19]: Chemical stability of compound in PBS assessed as compound remaining measured after 6 days by HPLC UV analysis. Type of data set: physicochemical. Particulars: buffer, 144 h; time 6 day.
A short description of data set [20]: Total Cmax in Beagle dog at 15 mg/kg, po qd measured after 91 days. Type of data set: ADME, organism-based, Canis lupus familiaris. Particulars: in vivo, time 91 day.
Data set [21] is described as follows: Total AUC (0 to 24 hrs) in Beagle dog at 5 mg/kg, po qd measured after 91 days. Conditions: in vivo, time 91 day. Type of data set: ADME, organism-based, Canis lupus familiaris.
A short description of data set [22]: Oral bioavailability in CD-1 mouse at 10 mg/kg measured for 24 hrs by LC-MS/MS analysis. The class given is ADME, organism-based. Conditions: in vivo.
Data set [23] is described as follows: Total AUC (0 to 24 hrs) in Beagle dog at 60 mg/kg, po qd measured after 91 days. The class given is ADME, organism-based, Canis lupus familiaris. Conditions: in vivo, time 91 day.
Data set [24] in a line: Free Cmax in Beagle dog at 45 mg/kg, po qd measured after 91 days. The class given is ADME, organism-based, Canis lupus familiaris. Conditions: in vivo, 2184 h, time 91 day.
For a further data set, the target named is CYP3A4 (Homo sapiens, UniProt P08684). Description: Inhibition of CYP3A4 in human liver microsomes using testosterone as substrate preincubated for 30 min followed by NADPH addition measured after 12 mins by LC-MS/MS analysis. Type of data set: ADME, Microsome. Conditions: human, liver microsomes, probe testosterone.
CYP3A4, sequence (P08684 whole entry): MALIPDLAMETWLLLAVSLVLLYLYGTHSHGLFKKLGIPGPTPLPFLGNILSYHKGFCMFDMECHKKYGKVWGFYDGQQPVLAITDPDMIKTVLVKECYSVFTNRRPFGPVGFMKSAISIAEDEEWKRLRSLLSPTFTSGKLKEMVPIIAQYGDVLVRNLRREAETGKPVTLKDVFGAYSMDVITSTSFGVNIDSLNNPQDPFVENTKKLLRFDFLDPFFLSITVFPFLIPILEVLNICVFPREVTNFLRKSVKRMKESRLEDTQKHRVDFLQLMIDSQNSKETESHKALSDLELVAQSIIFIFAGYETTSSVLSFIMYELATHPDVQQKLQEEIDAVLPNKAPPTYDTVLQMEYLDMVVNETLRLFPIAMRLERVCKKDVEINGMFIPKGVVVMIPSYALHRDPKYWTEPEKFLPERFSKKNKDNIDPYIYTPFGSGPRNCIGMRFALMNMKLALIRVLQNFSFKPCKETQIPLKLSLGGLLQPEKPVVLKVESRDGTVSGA
A short description of data set [25]: Ratio of drug concentration in heart to plasma of Sprague-Dawley rat at 10 mg/kg, po measured for 24 hrs by LC-MS/MS analysis. Type of data set: ADME, organism-based. Conditions: heart and plasma.
Data set [26] in a line: Total Cmax in Beagle dog at 45 mg/kg, po qd measured after 91 days. The class given is ADME, organism-based, Canis lupus familiaris. Conditions: in vivo, time 91 day.
The nature of data set [27]: Toxicity in Beagle dog assessed as animal death at 60 mg/kg, po qd measured after 45 days. The class given is organism-based, Canis lupus familiaris. Conditions: in vivo, 1080 h, time 45 day.
Data set [28] is described as follows: Drug concentration in Sprague-Dawley rat heart at 10 mg/kg, po measured for 24 hrs by LC-MS/MS analysis. Type of data set: ADME, organism-based. Particulars: read-out: Ct.
Data set [29] is described as follows: Oral bioavailability in Sprague-Dawley rat at 10 mg/kg measured for 24 hrs by LC-MS/MS analysis. The class given is ADME, organism-based. Conditions: in vivo.
Data set [30] is described as follows: Selectivity ratio of drug concentration in liver in Sprague-Dawley rat at 10 mg/kg, po measured for 24 hrs to EC90 for antiviral activity against HBV infected in human HepG2.2.15 cells assessed as reduction in HBsAg level. Conditions: in vivo. Type of data set: ADME, organism-based.
Setting [31] is: in vivo, po, 5 mg/kg, 24 h, BLD = below limit of detection.

The results in this text go back to ChEMBL document CHEMBL6127124, “Structure-Activity Relationships and Discovery of (S)-5-(tert-Butyl)-11-(difluoromethoxy)-9-methoxy-2-oxo-1,2,5,6-tetrahydropyrido[2',1':2,3]imidazo[4,5-h]quinoline-3-carboxylic Acid (AB-161), a Novel Orally Available and Liver-Centric HBV RNA Destabilizer” (J Med Chem, 2024).

For orientation: AUC means concentration integrated over time. One may read the Kp as tissue or fluid exposure divided by exposure in the circulation. In general, IC50 refers to the concentration needed to halve the response being measured. As a reminder, the Cmax is the peak of the concentration-time curve. One may read the AUC(0-t) as the area under the concentration-time curve up to a stated or last time point.

Cytochrome P450 2C9, sequence (P11712 whole entry): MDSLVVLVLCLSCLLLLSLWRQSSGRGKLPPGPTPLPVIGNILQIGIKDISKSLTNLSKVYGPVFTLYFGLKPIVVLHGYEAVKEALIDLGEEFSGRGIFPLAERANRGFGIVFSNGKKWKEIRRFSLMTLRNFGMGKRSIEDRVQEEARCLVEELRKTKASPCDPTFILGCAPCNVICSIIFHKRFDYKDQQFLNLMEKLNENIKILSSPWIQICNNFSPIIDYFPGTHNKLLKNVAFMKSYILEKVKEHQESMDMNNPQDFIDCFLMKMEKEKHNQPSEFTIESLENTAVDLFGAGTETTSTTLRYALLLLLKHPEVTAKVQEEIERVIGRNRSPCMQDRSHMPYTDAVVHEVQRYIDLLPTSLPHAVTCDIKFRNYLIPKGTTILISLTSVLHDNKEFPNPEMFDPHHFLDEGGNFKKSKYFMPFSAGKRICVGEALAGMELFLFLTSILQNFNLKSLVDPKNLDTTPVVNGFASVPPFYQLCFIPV

With `COc1cc(OC(F)F)c2nc3c(n2c1)C[C@@H](C(C)(C)C)c1cc(C(=O)O)c(=O)[nH]c1-3`, the Activity is < 10% in data set [1]; < 15% in [6]; “Non-Toxic” in data set [7]; “Non-Toxic” in data set [8]; “Non-Toxic” in [11]. Further, the AUC at 1440 h in data set [2] worked out at 65900 ng·h/mL. Besides, the Kp at 24 h in [3] turned out to be 116. In addition, the Ct result in data set [4] (setting [31]) is “Bld”. The Ratio entry in [5] (setting [31]) is given as “Bld”. Further, the IC50 against Cytochrome P450 2C9 was 22 µM. The compound further displayed a fAUC in [9] of 1830 ng·h/mL. For the same compound, the “fold change (FC)” value in data set [10] is recorded as < 2. This compound also came in with a Cmax in data set [12] of 13900 ng/mL.
On to `COCCCOc1cc2c(nc1OC)-c1cc(=O)c(C(=O)O)cn1[C@H](C(C)C)C2`, for which the IC50 at 12 min against CYP1A2, at CYP2C19 and against CYP3A4 was > 25 µM in each case. In addition, the fCmax in data set [13] is 4270 ng/mL; in data set [16] it was 1740 ng/mL; in [24] it was 10300 ng/mL. The figures for the “log(activity)” value in the data set on Hepatitis B virus [14] and in the data set with Hepatitis B virus [15] were 0.98 and “<=0.94”, respectively. Besides, in [17], the AUC(0-t) at 24 h came to 13900 ng·h/mL. Besides, the concentration at 24 h in data set [18] worked out at 28.2 ng/g; in data set [28], 53 ng/g. In addition, the Stability result in data set [19] is reported as “Stable”. In addition, the values for the peak concentration (Cmax) in [20] and in [26] were 11500 ng/mL and 27800 ng/mL, respectively. Moreover, the area under the curve (AUC) at 2184 h came out at 10500 ng·h/mL in [21] and 128000 ng·h/mL in data set [23]. The bioavailability turned out to be 112% in data set [22] and 80% in [29]. Also, the Kp at 24 h in data set [25] came to 1.9. For the same compound, in [27], the Activity entry is given as “Toxic”. The Ratio in data set [30] is 5.
`CC(C)(C)[C@@H]1Cc2c(nc3c(C(F)(F)F)cc(C4CC4)cn23)-c2[nH]c(=O)c(C(=O)O)cc21`: the Kp at 24 h stood at 97 in [3]; 0.7 in [5] (Sprague-Dawley, lung and plasma). For the same compound, in [4] (Sprague-Dawley, lung, read-out: Ct), the concentration at 24 h was determined as 5 ng/g. This compound also showed a half-inhibitory concentration (IC50) on Cytochrome P450 2C9 of 21 µM.
